What was measured:
Assay in all cases: selective drug sensitivity score (sDSS, relative to normal bone marrow) (sDSS (score)); higher = more potent and effective on the cell line relative to normal bone marrow cells
Details in all cases: 72 h
697 = tested on: 697
PF-382 = tested on: PF-382
COG-LL-355h = tested on: COG-LL-355h
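Further: ALL cell lines in 384-well plates, five doses spanning 10,000-fold, each plate scaled between vehicle and 100 µmol/L benzalkonium chloride controls, sDSS an adapted area-under-curve metric.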

O=C(Nc1cccc(Nc2ncc(Br)c(NCCc3cnc[nH]3)n2)c1)N1CCCC1 [BX-912] (top concentration 10000 nM)
selective drug sensitivity score 697: 10.4
selective drug sensitivity score (PF-382): 5.06
selective drug sensitivity score (COG-LL-355h): 1.36

Cc1c(C(=O)Nc2ccc(N3C[C@@H](C)O[C@@H](C)C3)nc2)cccc1-c1ccc(OC(F)(F)F)cc1 [Sonidegib] (top concentration 10000 nM)
selective drug sensitivity score 697: 1.28
selective drug sensitivity score (PF-382): 2.28
selective drug sensitivity score (COG-LL-355h): -3.92

N[C@@H]1CCCN(c2c(/C=C3\SC(=O)NC3=O)cccc2-c2ccccc2)C1 [AZD1208] (top concentration 10000 nM)
selective drug sensitivity score 697: 1.2
selective drug sensitivity score (PF-382): -3.8
selective drug sensitivity score (COG-LL-355h): 12.4

CC1=NN(c2ccc(C(=O)O)cc2)C(=O)C1=Cc1ccc(-c2cc(C)c(C)cc2[N+](=O)[O-])o1 [C646] (top concentration 25000 nM)
selective drug sensitivity score 697: 2.34
selective drug sensitivity score (PF-382): 0.64
selective drug sensitivity score (COG-LL-355h): 4.44

Cc1cc(Nc2ncc(Cl)c(Nc3ccccc3S(=O)(=O)C(C)C)n2)c(OC(C)C)cc1C1CCNCC1 [Ceritinib] (top concentration 2500 nM)
selective drug sensitivity score 697: -2.24
selective drug sensitivity score (PF-382): -3.24
selective drug sensitivity score (COG-LL-355h): 2.86

O=c1[nH]c(C2CCCN2)nc2c1oc1ccc(Cl)cc12 (stereo unspecified) (top concentration 10000 nM)
selective drug sensitivity score 697: 6.2
selective drug sensitivity score (PF-382): 2.4
selective drug sensitivity score (COG-LL-355h): 2.1

NS(=O)(=O)OC[C@@H]1C[C@@H](n2ccc3c(N[C@H]4CCc5ccccc54)ncnc32)C[C@@H]1O [Pevonedistat] (top concentration 10000 nM)
selective drug sensitivity score 697: 13.1
selective drug sensitivity score (PF-382): 13.2
selective drug sensitivity score (COG-LL-355h): 6

Cc1nc(Nc2ncc(C(=O)Nc3c(C)cccc3Cl)s2)cc(N2CCN(CCO)CC2)n1 [Dasatinib] (top concentration 1000 nM)
selective drug sensitivity score 697: 3.1
selective drug sensitivity score (PF-382): 10.8
selective drug sensitivity score (COG-LL-355h): -2.8

CCN(CC)Cc1ccc2cc(COC(=O)Nc3ccc(C(=O)NO)cc3)ccc2c1 [Givinostat] (top concentration 1000 nM)
selective drug sensitivity score 697: 4.8
selective drug sensitivity score (PF-382): 2.9
selective drug sensitivity score (COG-LL-355h): 5

C[C@@H](Oc1ccc2[nH]nc(/C=C/c3cnn(CCO)c3)c2c1)c1c(Cl)cncc1Cl (top concentration 1000 nM)
selective drug sensitivity score 697: 1.96
selective drug sensitivity score (PF-382): -2.14
selective drug sensitivity score (COG-LL-355h): 0.36

C=CC(=O)N1CCC[C@@H](n2nc(-c3ccc(Oc4ccccc4)cc3)c3c(N)ncnc32)C1 [Ibrutinib] (top concentration 1000 nM)
selective drug sensitivity score 697: 2.2
selective drug sensitivity score (PF-382): 0
selective drug sensitivity score (COG-LL-355h): 0

O=C(NC1CCNCC1)c1n[nH]cc1NC(=O)c1c(Cl)cccc1Cl [AT7519] (top concentration 10000 nM)
selective drug sensitivity score 697: -2.46
selective drug sensitivity score (PF-382): -7.16
selective drug sensitivity score (COG-LL-355h): 2.74

CN1CC[C@H](c2c(O)cc(O)c3c(=O)cc(-c4ccccc4Cl)oc23)[C@H](O)C1 [Alvocidib] (top concentration 10000 nM)
selective drug sensitivity score 697: 1.3
selective drug sensitivity score (PF-382): -3.3
selective drug sensitivity score (COG-LL-355h): -0.1

O=C(CCCCCCC(=O)Nc1ccc([C@H]2O[C@@H](CSc3nc(-c4ccccc4)c(-c4ccccc4)o3)C[C@@H](c3ccc(CO)cc3)O2)cc1)NO [Tubacin] (top concentration 10000 nM)
selective drug sensitivity score 697: 8.54
selective drug sensitivity score (PF-382): 8.14
selective drug sensitivity score (COG-LL-355h): 7.14

CN(C)CCOc1ccc(/C(=C(/CCCl)c2ccccc2)c2ccccc2)cc1 [Toremifene] (top concentration 10000 nM)
selective drug sensitivity score 697: 0.28
selective drug sensitivity score (PF-382): 1.08
selective drug sensitivity score (COG-LL-355h): 2.28

Cc1cc(C(C)Nc2ccccc2)c2nc(N3CCOCC3)cc(=O)n2c1 (stereo unspecified) [TGX-221] (top concentration 10000 nM)
selective drug sensitivity score 697: 0.16
selective drug sensitivity score (PF-382): -0.84
selective drug sensitivity score (COG-LL-355h): 2.96

CN1CCN(c2nc(C3=C(c4c[nH]c5ccccc45)C(=O)NC3=O)c3ccccc3n2)CC1 [Sotrastaurin] (top concentration 10000 nM)
selective drug sensitivity score 697: 8
selective drug sensitivity score (PF-382): -1.9
selective drug sensitivity score (COG-LL-355h): 5.7

CNC(=O)c1cc(Oc2ccc(NC(=O)Nc3ccc(Cl)c(C(F)(F)F)c3)cc2)ccn1 [Sorafenib] (top concentration 1000 nM)
selective drug sensitivity score 697: 1.7
selective drug sensitivity score (PF-382): 1.3
selective drug sensitivity score (COG-LL-355h): 0

CC1CCC(n2c3cnccc3c3cnc(Nc4ccc5c(n4)CCN(C(=O)CO)C5)nc32)CC1 (stereo unspecified) [AMG-925] (top concentration 1000 nM)
selective drug sensitivity score 697: 11.4
selective drug sensitivity score (PF-382): 5.44
selective drug sensitivity score (COG-LL-355h): 2.34

NC[C@@](O)(c1ccc(Cl)cc1)c1ccc(-c2cn[nH]c2)cc1 (top concentration 10000 nM)
selective drug sensitivity score 697: 9.78
selective drug sensitivity score (PF-382): 1.28
selective drug sensitivity score (COG-LL-355h): 3.28

C/C=C1\NC(=O)[C@H]2CSSCC/C=C/[C@H](CC(=O)N[C@H](C(C)C)C(=O)N2)OC(=O)[C@H](C(C)C)NC1=O [Romidepsin] (top concentration 1000 nM)
selective drug sensitivity score 697: 3.16
selective drug sensitivity score (PF-382): 1.96
selective drug sensitivity score (COG-LL-355h): -0.54

CC(C)c1cc(-c2n[nH]c(=O)n2-c2ccc3c(ccn3C)c2)c(O)cc1O [Ganetespib] (top concentration 1000 nM)
selective drug sensitivity score 697: 1.24
selective drug sensitivity score (PF-382): 1.64
selective drug sensitivity score (COG-LL-355h): 1.34

COc1cc(Nc2ncc(F)c(Nc3ccc4c(n3)N(COP(=O)(O)O)C(=O)C(C)(C)O4)n2)cc(OC)c1OC [Fostamatinib] (top concentration 2500 nM)
selective drug sensitivity score 697: 3.16
selective drug sensitivity score (PF-382): -1.14
selective drug sensitivity score (COG-LL-355h): 1.96

N#CCNC(=O)c1ccc(-c2ccnc(Nc3ccc(N4CCOCC4)cc3)n2)cc1 [Momelotinib] (top concentration 10000 nM)
selective drug sensitivity score 697: 2.68
selective drug sensitivity score (PF-382): -3.42
selective drug sensitivity score (COG-LL-355h): -0.92

Nc1nc(Cl)nc2c1ncn2[C@@H]1O[C@H](CO)[C@@H](O)[C@@H]1F [Clofarabine] (top concentration 10000 nM)
selective drug sensitivity score 697: 9.6
selective drug sensitivity score (PF-382): 1.8
selective drug sensitivity score (COG-LL-355h): 3

COc1cc(N2CCC(N3CCN(C)CC3)CC2)ccc1Nc1ncc(Cl)c(Nc2ccccc2P(C)(C)=O)n1 [Brigatinib] (top concentration 1000 nM)
selective drug sensitivity score 697: -1.84
selective drug sensitivity score (PF-382): -2.84
selective drug sensitivity score (COG-LL-355h): 2.86

CCN1CCN(Cc2ccc(Nc3ncc(F)c(-c4cc(F)c5nc(C)n(C(C)C)c5c4)n3)nc2)CC1 [Abemaciclib] (top concentration 2500 nM)
selective drug sensitivity score 697: 8.44
selective drug sensitivity score (PF-382): -1.26
selective drug sensitivity score (COG-LL-355h): 6.44

CC(C)C[C@H](NC(=O)CNC(=O)c1cc(Cl)ccc1Cl)B(O)O [Ixazomib] (top concentration 1000 nM)
selective drug sensitivity score 697: 5.56
selective drug sensitivity score (PF-382): 7.86
selective drug sensitivity score (COG-LL-355h): 6.56

CCn1c(C(=O)N(C2CC2)C2CC2)cc2c3c(ncn3C)c(Nc3cc(C)n(C)n3)nc21 (top concentration 10000 nM)
selective drug sensitivity score 697: -3.76
selective drug sensitivity score (PF-382): -4.36
selective drug sensitivity score (COG-LL-355h): 1.14

C=C1C[C@@H]2[C@H](CC[C@]3(C)C(=O)CC[C@@H]23)[C@@]2(C)C=CC(=O)C=C12 [Exemestane] (top concentration 10000 nM)
selective drug sensitivity score 697: -0.9
selective drug sensitivity score (PF-382): -0.4
selective drug sensitivity score (COG-LL-355h): 1

Cc1nc(-c2cn3c(n2)-c2ccc(-c4cnn(C(C)(C)C(N)=O)c4)cc2OCC3)n(C(C)C)n1 [Taselisib] (top concentration 1000 nM)
selective drug sensitivity score 697: 3.9
selective drug sensitivity score (PF-382): 3
selective drug sensitivity score (COG-LL-355h): 11.9

Cc1ncc(-c2ccnc(Nc3ccc(S(C)(=O)=O)cc3)n2)n1C(C)C [AZD-5438] (top concentration 10000 nM)
selective drug sensitivity score 697: 0.94
selective drug sensitivity score (PF-382): -2.46
selective drug sensitivity score (COG-LL-355h): 3.94
